Where two headings read alike, the source gives them in different places.
What was measured:
[1] = tested on: Serratia marcescens expressing IMP-1 (CL5741); assay: Antibiotic potentiation activity: synergistic concentration (MITC95) with imipenem, OD600 growth; type: cell-based; settings: for Serratia marcescens expressing IMP-1 (CL5741) MITC95: concentration giving 95% inhibition of bacterial growth; for Serratia marcescens MITC95: Serratia marcescens expressing IMP-1 (CL5741), 95% growth inhibition
Summary of the method: (§1)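 Absorbance after a 22–24 h, 35 °C incubation served as the read-out. Wells held bacteria (saline suspension diluted 1:100 into 1.1× CAMHB), imipenem at 4 μg/ml final or optionally 1 μg/ml, and test compound.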

[2] = tested on: Escherichia coli expressing NDM-1 (CLB30005); assay: as above; type: cell-based; settings: for Escherichia coli expressing NDM-1 (CLB 30005) MITC95: concentration giving 95% inhibition of bacterial growth; for Escherichia coli MITC95: Escherichia coli expressing NDM-1 (CLB30005), 95% growth inhibition
Summary of the method: as §1

[3] = tested on: Klebsiella pneumoniae expressing VIM-1 (IHMA599644); assay: as above; type: cell-based; settings: for Klebsiella pneumoniae expressing VIM-1 (IHMA 599644) MITC95: concentration giving 95% inhibition of bacterial growth; for Klebsiella pneumoniae MITC95: Klebsiella pneumoniae expressing VIM-1 (IHMA599644), 95% growth inhibition
Summary of the method: as §1

[4] = target: NDM-1 (Klebsiella pneumoniae, UniProt C7C422); assay: biochemical; type: biochemical; settings: read-out: NDM-1 IC50
NDM-1, sequence (C7C422 whole entry, looked up, species assumed): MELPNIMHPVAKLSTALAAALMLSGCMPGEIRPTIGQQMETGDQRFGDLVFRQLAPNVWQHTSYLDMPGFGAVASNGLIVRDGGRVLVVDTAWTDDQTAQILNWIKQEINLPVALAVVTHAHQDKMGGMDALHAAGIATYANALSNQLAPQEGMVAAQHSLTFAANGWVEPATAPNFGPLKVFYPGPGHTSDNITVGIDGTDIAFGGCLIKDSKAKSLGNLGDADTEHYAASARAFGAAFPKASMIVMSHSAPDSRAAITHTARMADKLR

[5] = target: VIM-1 (Pseudomonas aeruginosa (strain ATCC 15692 / DSM 22644 / CIP 104116 / JCM 14847 / LMG 12228 / 1C / PRS 101 / PAO1), UniProt A0A0F7KYQ8); assay: Enzyme activity: determination of IC50, fluorescence assay with CCF2-FA substrate (VIM-1); type: biochemical
[6] = target: IMP-1 (Serratia marcescens, UniProt P52699); assay: biochemical; type: biochemical; settings: read-out: IMP-1 IC50
IMP-1, sequence (P52699 whole entry, looked up): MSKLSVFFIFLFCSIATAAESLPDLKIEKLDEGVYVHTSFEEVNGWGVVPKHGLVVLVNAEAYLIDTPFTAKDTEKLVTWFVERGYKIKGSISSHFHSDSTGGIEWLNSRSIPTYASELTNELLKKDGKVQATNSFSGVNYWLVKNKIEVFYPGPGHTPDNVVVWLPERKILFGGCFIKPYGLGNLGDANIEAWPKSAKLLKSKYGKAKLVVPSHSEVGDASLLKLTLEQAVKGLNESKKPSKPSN

[7] = fluorescence assay with CCF2-FA substrate
[8] = fluorescence assay with CCF2-FA substrate, read-out: VIM-1 IC50
[9] = NDM-1 enzyme, CCF2-FA fluorescence assay
[10] = VIM-1 enzyme, CCF2-FA fluorescence assay, read-out: VIM-1 IC50
[11] = IMP-1 enzyme, CCF2-FA fluorescence assay

SMILES | Serratia marcescens expressing IMP-1 (CL5741) MITC95 [1] | Escherichia coli expressing NDM-1 (CLB 30005) MITC95 [2] | Klebsiella pneumoniae expressing VIM-1 (IHMA 599644) MITC95 [3] | IC50 [4, 7] | IC50 [5, 8] | IC50 [6, 7] | Serratia marcescens MITC95 [1] | Escherichia coli MITC95 [2] | Klebsiella pneumoniae MITC95 [3] | IC50 [4, 9] | IC50 [5, 10] | IC50 [6, 11] | IC50 ([5]; VIM-1 IC50, VIM-1 enzyme, CCF2-FA fluorescence assay)
NS(=O)(=O)c1cccc(-c2cnn3c2CCCC3)c1-c1nn[nH]n1 [Example 107, 3-(4,5,6,7-tetrahydropyrazolo[1,5-a]pyridin-3-yl)-2-(2H-tetrazol-5-yl)benzenesulfonamide] | 15.63 µM | 3.906 µM | 200 µM | 0.01 µM | 0.194 µM | 0.365 µM |  |  |  |  |  |  | 
Cn1ccc(-c2cccc(S(N)(=O)=O)c2-c2nn[nH]n2)n1 [Example 97, 3-(1-methyl-1H-pyrazol-3-yl)-2-(2H-tetrazol-5-yl)benzenesulfonamide] | 18.75 µM | 0.5859 µM | 200 µM | 0.0711 µM | 1.61 µM | 1.57 µM |  |  |  |  |  |  | 
NS(=O)(=O)c1cccc(-c2ccc(C3(C(F)(F)F)OCCO3)nc2)c1-c1nn[nH]n1 [Example 22, 2-(2H-tetrazol-5-yl)-3-{6-[2-(trifluoromethyl)-1,3-dioxolan-2-yl]pyridin-3-yl}benzenesulfonamide] | 6.25 µM | 1.563 µM | 200 µM | 0.002 µM | 0.0267 µM | 0.0318 µM |  |  |  |  |  |  | 
NS(=O)(=O)c1cccc(-c2ccc3c(=O)nc[nH]c3c2)c1-c1nn[nH]n1 [Example 69, 3-(4-oxo-1,4-dihydroquinazolin-7-yl)-2-(2H-tetrazol-5-yl)benzenesulfonamide] | 18.75 µM | 0.7813 µM | 25 µM | 0.00505 µM | 0.0264 µM | 0.237 µM |  |  |  |  |  |  | 
NS(=O)(=O)c1cccc(-c2ccc3c(c2)OCCO3)c1-c1nn[nH]n1 [Example 56, 3-(2,3-dihydro-1,4-benzodioxin-6-yl)-2-(2H-tetrazol-5-yl)benzenesulfonamide] | 14.06 µM | 2.344 µM | 200 µM | 0.00183 µM | 0.044 µM | 0.0132 µM |  |  |  |  |  |  | 
COc1ncc(-c2cccc(S(N)(=O)=O)c2-c2nn[nH]n2)cn1 [Example 91, 3-(2-methoxypyrimidin-5-yl)-2-(2H-tetrazol-5-yl)benzenesulfonamide] | 50 µM | 0.7813 µM | 75 µM | 0.0275 µM | 0.18 µM | 0.83 µM |  |  |  |  |  |  | 
CC(c1ccc(-c2cccc(S(N)(=O)=O)c2-c2nn[nH]n2)cc1)N1CCOCC1 (stereo not drawn) [Example 4, 4′-(1-morpholin-4-ylethyl)-2-(2H-tetrazol-5-yl)biphenyl-3-sulfonamide] | 6.25 µM | 0.7813 µM | >200 µM | 0.00284 µM | 0.196 µM | 0.0113 µM |  |  |  |  |  |  | 
NC(=O)c1cccc(-c2cccc(S(N)(=O)=O)c2-c2nn[nH]n2)c1 [Example 81, 3′-sulfamoyl-2′-(2H-tetrazol-5-yl)biphenyl-3-carboxamide] | 37.5 µM | 0.9766 µM | 37.5 µM | 0.0347 µM | 0.255 µM | 0.571 µM |  |  |  |  |  |  | 
NS(=O)(=O)c1cccc(C2CCCNC2)c1-c1nn[nH]n1 (stereo not drawn) [Example 175, 3-(piperidin-3-yl)-2-(2H-tetrazol-5-yl)benzenesulfonamide] | 37.5 µM | 0.7813 µM | 75 µM | 0.552 µM | 3.09 µM | 12.4 µM |  |  |  |  |  |  | 
Nc1ncc(-c2cccc(S(N)(=O)=O)c2-c2nnn[nH]2)cn1 [Example 301, 3-(2-aminopyrimidin-5-yl)-2-(1H-tetrazol-5-yl)benzenesulfonamide] |  |  |  |  |  |  | 37.5 µM | 0.7813 µM | 25 µM | 0.0082 µM | 0.282 µM | 1.38 µM | 
NS(=O)(=O)c1cccc(-c2ccc3cn[nH]c3c2)c1-c1nn[nH]n1 [Example 90, 3-(1H-indazol-6-yl)-2-(2H-tetrazol-5-yl)benzenesulfonamide] | 25 µM | 0.5859 µM | 12.5 µM | 0.00224 µM | 0.0155 µM | 0.197 µM |  |  |  |  |  |  | 
NS(=O)(=O)c1cccc(-c2ccc(C3(O)CNC3)cc2)c1-c1nn[nH]n1 [Example 315, 4′-(3-hydroxyazetidin-3-yl)-2-(2H-tetrazol-5-yl)-[1,1′-biphenyl]-3-sulfonamide] |  |  |  |  |  |  | 4.688 µM | 0.3906 µM | 3.125 µM | 0.0116 µM |  | 0.51 µM | 0.0334 µM
NS(=O)(=O)c1cccc(-c2ccc(C(=O)N3CCC(O)CC3)cc2)c1-c1nn[nH]n1 [Example 52, 4′-[(4-hydroxypiperidin-1-yl)carbonyl]-2-(2H-tetrazol-5-yl)biphenyl-3-sulfonamide] | 6.25 µM | 1.563 µM | 100 µM | 0.00171 µM | 0.0966 µM | 0.0179 µM |  |  |  |  |  |  | 
NS(=O)(=O)c1cccc(-c2ccccc2O)c1-c1nn[nH]n1 [Example 326, 2′-hydroxy-2-(2H-tetrazol-5-yl)-[1,1′-biphenyl]-3-sulfonamide] |  |  |  |  |  |  | 18.75 µM | 3.32 µM | 37.5 µM | 0.00365 µM | 0.136 µM | 0.37 µM | 
NS(=O)(=O)c1cccc(-c2ccc(CC3OC(=O)NC3=O)cc2)c1-c1nn[nH]n1 (stereo not drawn) [Example 76, 4′-[(2,4-dioxo-1,3-oxazolidin-5-yl)methyl]-2-(2H-tetrazol-5-yl)biphenyl-3-sulfonamide] | 6.25 µM | 6.25 µM | >200 µM | 0.0171 µM | 0.244 µM | 0.0427 µM |  |  |  |  |  |  | 
NS(=O)(=O)c1nccc(-c2ccc3c(c2)CNC3=O)c1-c1nnn[nH]1 [Example 196, 4-(1-oxoisoindolin-5-yl)-3-(1H-tetrazol-5-yl)pyridine-2-sulfonamide] | 125 µM | 1.953 µM | 25 µM | 0.0456 µM | 0.0503 µM | 1.59 µM |  |  |  |  |  |  | 
Cc1ccc(-c2cc(-c3cccnc3)cc(S(N)(=O)=O)c2-c2nn[nH]n2)cc1 [Example 293, 4′-methyl-5-(pyridin-3-yl)-2-(2H-tetrazol-5-yl)-[1,1′-biphenyl]-3-sulfonamide] |  |  |  |  |  |  | 9.375 µM | 1.953 µM | >200 µM | 0.00102 µM | 0.232 µM | 0.0865 µM | 

Source: patent US9708336B2, “Metallo-beta-lactamase inhibitors” (priority 2014, dated 2017)
